Results reported in ChEMBL document CHEMBL3784953, “A homology modelling-driven study leading to the discovery of the first mouse trace amine-associated receptor 5 (TAAR5) antagonists” (Medchemcomm, 2016).

Assays:
Mus musculus = species on record: Mus musculus; assay: Selectivity ratio of IC50 for mouse TAAR1 to IC50 for mouse TAAR5
[1] = target: T1, Trace amine-associated receptor 5 (Mus musculus, UniProt Q5QD14); assay: Antagonist activity at mouse TAAR5 expressed in HEK293 cells assessed as inhibition of agonist induced cAMP release preincubated for 5 mins followed by addition of agonist by BRET assay; format: functional, cell-based
T1 sequence (Q5QD14 whole entry): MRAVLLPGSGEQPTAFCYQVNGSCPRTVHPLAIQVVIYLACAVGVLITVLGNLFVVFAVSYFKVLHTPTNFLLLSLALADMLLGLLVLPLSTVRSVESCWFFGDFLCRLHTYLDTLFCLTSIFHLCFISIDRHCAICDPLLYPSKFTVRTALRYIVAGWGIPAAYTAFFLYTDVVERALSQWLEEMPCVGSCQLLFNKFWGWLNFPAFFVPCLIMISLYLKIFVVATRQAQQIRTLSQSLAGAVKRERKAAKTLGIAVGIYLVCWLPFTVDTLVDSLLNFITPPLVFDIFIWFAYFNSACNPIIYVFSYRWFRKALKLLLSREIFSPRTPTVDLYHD

[2] = target: Trace amine-associated receptor 1 (Mus musculus, UniProt Q923Y8); assay: Antagonist activity at mouse TAAR1 expressed in HEK293 cells assessed as inhibition of agonist induced cAMP release preincubated for 5 mins followed by addition of agonist by BRET assay; format: functional, cell-based
Trace amine-associated receptor 1, sequence (Q923Y8 whole entry): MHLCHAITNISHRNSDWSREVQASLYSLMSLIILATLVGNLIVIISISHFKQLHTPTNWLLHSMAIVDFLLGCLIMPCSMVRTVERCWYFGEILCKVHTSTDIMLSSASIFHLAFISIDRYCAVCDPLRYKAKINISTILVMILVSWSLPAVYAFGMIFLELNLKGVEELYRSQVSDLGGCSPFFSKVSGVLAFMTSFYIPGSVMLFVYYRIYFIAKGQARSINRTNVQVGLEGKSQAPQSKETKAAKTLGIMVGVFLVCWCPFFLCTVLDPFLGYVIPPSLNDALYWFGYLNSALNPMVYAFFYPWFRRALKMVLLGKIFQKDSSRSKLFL

[3] = target: T1, Trace amine-associated receptor 5; assay: (§1) Agonist activity at mouse TAAR5 expressed in HEK293 cells assessed as increase in cAMP release after 30 mins by BRET assay relative to control; format: functional, cell-based
[4] = target: T2, Trace amine-associated receptor 5 (Mus musculus) (UniProt Q5QD14); assay: as §1; format: functional, cell-based
T2 sequence (whole entry): T1 sequence (Q5QD14 whole entry)

[5] = target: T3, Trace amine-associated receptor 1 (Homo sapiens) (UniProt Q96RJ0); assay: Agonist activity at human TAAR1 expressed in HEK293 cells assessed as increase in cAMP release after 30 mins by BRET assay; format: functional, cell-based
T3 sequence (whole entry): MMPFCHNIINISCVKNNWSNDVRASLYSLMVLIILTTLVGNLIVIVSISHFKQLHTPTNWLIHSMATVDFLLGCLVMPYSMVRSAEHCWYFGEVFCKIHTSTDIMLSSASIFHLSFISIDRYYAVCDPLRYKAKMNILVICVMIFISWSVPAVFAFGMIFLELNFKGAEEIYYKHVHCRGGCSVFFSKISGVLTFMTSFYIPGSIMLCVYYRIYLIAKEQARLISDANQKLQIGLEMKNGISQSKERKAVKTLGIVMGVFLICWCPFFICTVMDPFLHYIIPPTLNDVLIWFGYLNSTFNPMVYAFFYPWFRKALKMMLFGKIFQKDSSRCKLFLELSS

## COc1ccccc1N1CCN(CC2CCC(c3ccccc3)(c3ccccc3)O2)CC1 (stereo not drawn)
Mus musculus
  Ratio IC50: > 20
[1]
  IC50: 4.8 µM
[2]
  IC50: > 100 µM

## CN(C)C [TRIMETHYLAMMONIUM]
[3]
  EC50: 2.1 µM

## NCCc1ccc(Oc2ccc(O)cc2)c(I)c1
[4]
  fold change (FC): 2
[5]
  fold change (FC): 16

## COc1ccccc1OCCNCC1CCC(c2ccccc2)(c2ccccc2)O1 (stereo not drawn)
[1]
  IC50: 29 µM
[2]
  IC50: > 100 µM
